Measurements reported in patent US9073940B2, “Tricyclic pyrazol amine derivatives” (MERCK SERONO SA, priority 2009, dated 2015).
Structures can show the parent of a compound that is named as a salt. Where two headings read alike, the source gives them in different places.

Legend:
[1] = tested on: Class I PI3-kinases; conditions: each of the Class I PI3-kinases, cited from earlier work
[2] = tested on: 4 PI3K isoforms (Human recombinant GST-PI3K); test: PI3K scintillation proximity assay, best IC50 obtained with the four isoforms (alpha, beta, delta, gamma); assay type: biochemical; conditions: best IC50 obtained with the four isoforms of PI3K; read-out: Best potency measured on the 4 PI3K isoforms
[3] = tested on: AKT phosphorylation (p-AKT Ser 473) in Ramos B-lymphocyte cell line; test: Mechanistic on-target cell assay: flow cytometry of AKT phosphorylation after anti-human IGM stimulation; assay type: cell-based
Description: Mechanistic-On Target Cell Assay
The reaction was stopped by fixing the cells with Paraformaldehyde 4% (final) for 10 minutes at room temperature. Cells were washed once with Phosphate Buffer Saline (PBS), permabilized in PBS-Triton X-100 0.2% for 15 minutes at room temperature washed twice with PBS and once with PBS-4% serum. […] Cells were washed twice in PBS and resuspended in PBS. The cell suspension was passed on a FC500 flow cytometer (Beckman Coulter), gating on the IGM positive cells and measuring the AKT phosphorylation.

[4] = biological target: CK2 protein kinase (Homo sapiens (Human), UniProt P68400); conditions: cited from earlier work
Sequence of CK2 protein kinase (P68400 whole entry): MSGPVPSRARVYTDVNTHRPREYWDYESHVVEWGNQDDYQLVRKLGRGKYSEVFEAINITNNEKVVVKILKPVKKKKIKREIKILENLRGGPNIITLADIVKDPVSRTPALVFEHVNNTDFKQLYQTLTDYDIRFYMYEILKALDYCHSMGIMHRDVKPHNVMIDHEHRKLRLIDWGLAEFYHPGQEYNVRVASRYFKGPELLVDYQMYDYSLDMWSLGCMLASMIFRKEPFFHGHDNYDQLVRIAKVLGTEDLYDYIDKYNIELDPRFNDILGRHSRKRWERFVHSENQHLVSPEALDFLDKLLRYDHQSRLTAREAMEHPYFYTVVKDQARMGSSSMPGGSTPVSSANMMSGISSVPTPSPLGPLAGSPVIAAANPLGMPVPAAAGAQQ

In the case of `COC[C@H]1OC(=O)c2coc3c2[C@@]1(C)C1=C(C3=O)[C@@H]2CCC(=O)[C@@]2(C)C[C@H]1OC(C)=O` [Wortmannin], the IC50 ([1]; read-out: IC50 against each of the various Class I PI3-kinases) is given as 1 to 10 nM.

Work on `O=C(c1nn([C@H]2CCCN(C3CCOCC3)CC2)c2c1CS(=O)(=O)c1ccccc1-2)N1CCOCC1` (single isomer, unassigned) [Example 401] yielded an IC50 [2] of 340 nM and an IC50 [3] of 3630 nM.

Work on `O=C(c1nn([C@H]2CCN(C3CCOCC3)C2)c2c1CS(=O)(=O)c1c(F)cccc1-2)N1CCOCC1` (single isomer, unassigned) [Example 355, 6-fluoro-3-(morpholin-4-ylcarbonyl)-1-[1-(tetrahydro-2H-pyran-4-yl)pyrrolidin-3-yl]-1,4-dihydrothiochromeno[4,3-c]pyrazole 5,5-dioxide hydrochloride salt] yielded an IC50 [2] of 52 nM and an IC50 [3] of 94 nM.

`CCn1nc(C(=O)N2CCOCC2)c2c1-c1ccccc1S(=O)(=O)C2` [Example 37, 1-ethyl-3-(morpholin-4-ylcarbonyl)-1,4-dihydrothiochromeno[4,3-c]pyrazole 5,5-dioxide] showed an IC50 [2] of 601 nM and an IC50 [3] of 493 nM.

With `COc1ccc(Cn2nc(C(=O)N3CCOCC3)c3c2-c2ccccc2S(=O)(=O)C3)cc1` [Example 38, 1-(4-methoxybenzyl)-3-(morpholin-4-ylcarbonyl)-1,4-dihydrothiochromeno[4,3-c]pyrazole 5,5-dioxide] the IC50 [2] was 459 nM and the IC50 [3] was 942 nM.

Compound `O=C(c1nn(C2CCCCC2)c2c1CS(=O)(=O)c1ncccc1-2)N1CCOCC1` [Example 79, 3-(Morpholin-4-ylcarbonyl)-1-cyclohexyl-1,4-dihydropyrazolo[3′,4′:4,5]thio pyrano[2,3-b]pyridine 5,5-dioxide] has an IC50 [2] of 437 nM and an IC50 [3] of 492 nM.

In the case of `CS(=O)(=O)NCc1ccc(-n2nc(C(=O)N3CCOCC3)c3c2-c2ccccc2S(=O)(=O)C3)cc1` [Example 66, N-{4-[3-(Morpholin-4-ylcarbonyl)-5,5-dioxidothiochromeno[4,3-c]pyrazol-1(4H)-yl]benzyl}methanesulfonamide], the IC50 [2] is reported as 421 nM and the IC50 [3] is reported as 942 nM.

Work on `O=C(c1nn(CCO)c2c1CS(=O)(=O)c1ccccc1-2)N1CCOCC1` [Example 46, 2-[3-(morpholin-4-ylcarbonyl)-5,5-dioxidothiochromeno[4,3-c]pyrazol-1(4H)-yl]ethanol] yielded an IC50 [2] of 661 nM and an IC50 [3] of 680 nM.

Work on `O=C(c1nn([C@@H]2CCN(C3CCOCC3)C2)c2c1CS(=O)(=O)c1ccccc1-2)N1CCOCC1` (single isomer, unassigned) [Example 403] yielded an IC50 [2] of 45 nM and an IC50 [3] of 214 nM.

Work on `O=C(c1nn([C@H]2CCCN(CCN3CCOCC3)C2)c2c1CS(=O)(=O)c1cc(F)ccc1-2)N1CCOCC1` (stereo in doubt) [Example 472, 7-fluoro-3-(morpholin-4-ylcarbonyl)-1-[1-(2-morpholin-4-ylethyl)piperidin-3-yl]-1,4-dihydrothiochromeno[4,3-c]pyrazole 5,5-dioxide] yielded an IC50 [2] of 14 nM and an IC50 [3] of 45 nM.

In the case of `O=c1cc(N2CCOCC2)oc2c(-c3ccccc3)cccc12` [LY294002], the IC50 [4] is listed as 5000 to 10000 nM and the IC50 ([1]; read-out: IC50 against each of these PI3-kinases) is listed as 15000 to 20000 nM.

`CCCn1nc(C(=O)N2CCOCC2)c2c1-c1ccccc1S(=O)(=O)C2` [Example 39, 3-(morpholin-4-ylcarbonyl)-1-propyl-1,4-dihydrothiochromeno[4,3-c]pyrazole 5,5-dioxide] showed an IC50 [2] of 641 nM and an IC50 [3] of 388 nM.

`O=C(c1nn([C@@H]2CCCN(C3CCOCC3)CC2)c2c1CS(=O)(=O)c1ccccc1-2)N1CCOCC1` (single isomer, unassigned) [Example 400] showed an IC50 [2] of 104 nM and an IC50 [3] of 888 nM.

With `Cn1nc(C(=O)N2CCOCC2)c2c1-c1ccccc1S(=O)(=O)C2` [Example 34, 1-methyl-3-(morpholin-4-ylcarbonyl)-1,4-dihydrothiochromeno[4,3-c]pyrazole 5,5-dioxide] the IC50 [2] was 1750 nM and the IC50 [3] was 1800 nM.

For `COc1cccc2c1S(=O)(=O)Cc1c(C(=O)N3CCOCC3)nn(-c3ccccc3)c1-2` [Example 1, 6-methoxy-3-(morpholin-4-ylcarbonyl)-1-phenyl-1,4-dihydrothiochromeno[4,3-c]pyrazole 5,5-dioxide], the IC50 [2] was 459 nM and the IC50 [3] was 570 nM.
